Values joined by “and” are separate entries in the source; they are usually repeats but may differ in a detail not shown here. Identical values can stand only once.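 Growth conditions: 96-well plates. Treatment: test compound, 48 hours, 5 concentrations. Analysis: linear interpolation between bracketing concentrations; unreached endpoints set to highest concentration. Abbreviation: GI50, concentration required for 50% inhibition of growth. Definition used: TGI = concentration required for complete inhibition of growth.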
Key:
Experiment in all cases: NCI anticancer screen, dose series, 48 h
[1] = test system: A549 NSCLC
[2] = test system: CAKI-1 renal
[3] = test system: HL-60(TB) leukemia
[4] = test system: HOP-62 NSCLC
[5] = test system: HS 578T breast
[6] = test system: HT29 colon
[7] = test system: K-562 leukemia
[8] = test system: NCI/ADR-RES ovarian
[9] = test system: OVCAR-4 ovarian
[10] = test system: NCI-H226 lung

Compound	TGI [1] [µM]	TGI [2] [µM]	TGI [3] [µM]	TGI [4] [µM]	TGI [5] [µM]	TGI [6]	TGI [7] [µM]	TGI [8] [µM]	TGI [9] [µM]	TGI [10]	GI50 [1] [µM]	GI50 [5] [µM]	GI50 [6] [µM]	GI50 [7] [µM]	GI50 [3] [µM]	GI50 [2] [µM]	GI50 [4] [µM]	GI50 [10] [µM]	GI50 [8] [µM]	GI50 [9] [µM]
O=P(O)(O)OP(=O)(O)O	> 100	> 100	> 100	> 100	> 100	> 100 µM	> 100	> 100	> 100											
NC(CCc1ccccc1)(C(=O)O)c1ccccc1 (stereo not given)	> 100	> 100		> 100	> 100	> 100 µM	> 100	> 100	> 100	> 100 µM										
COC(=O)c1c(O)ccc2c1c1c(n2Cc2ccccn2)C(=O)c2ccccc2C1	> 100	> 100	> 100	> 100	> 100	> 100 µM	> 100	> 100	> 100	> 100 µM										
CC(Br)C(=O)c1ccc2cc(Br)c3ccccc3c2c1 (stereo not given)	39.1	30.1	37.5	32.4	62.9	31.8 µM	42.9	35	32.2											
CCOc1cc(NC(C)=O)ccc1C(=O)N/N=C/c1ccco1		> 100	> 100	> 100	> 100	> 100 µM	> 100	> 100	> 100	> 100 µM										
CCCCCCOC(=O)C(N)Cc1ccc(OC)cc1 (stereo not given)	> 100	> 100	> 100	> 100	> 100	> 100 µM	> 100	> 100	> 100	> 100 µM										
Cc1cc(N2CCOCC2)nc(N(CCCNc2ccnc3cc(Cl)ccc23)Cc2ccc3c(c2)OCO3)n1	3.12				4.61	2.8 µM	2.42				1.61	1.97	1.34	0.436						
CN(C)C/C=C(/c1ccc(Br)cc1)c1cccnc1	> 100	> 100	0.0516	> 100	> 100	> 100 µM	> 100	> 100	> 100	> 100 µM										
CCN(CC)/[N+]([O-])=N/OC	> 100		> 100	> 100		> 100 µM	> 100			> 100 µM										
Cc1cc(O)c2c(c1O)C(=O)c1c(O)ccc(O)c1C2=O	> 100	> 100	> 100	> 100	> 100	> 100 µM	> 100	> 100	> 100	> 100 µM										
CC(C)(C)c1ccc(O)c(Br)c1	> 100		> 100	> 100	> 100	> 100 µM	> 100	> 100	> 100	> 100 µM										
CC(C)c1ccc2c(c1)[C@@]1(C)CC[C@H](C)C(C)(C)C1CC2 (stereo not given in full)	32.1	50.6	63.6	35.2	47.4	31.3 µM	> 100	36.6	30.3	32.3 µM										
O=C(CSc1nc2ccc(Cl)cc2c(=O)n1-c1ccccc1)N=Nc1c(O)[nH]c2ccc(F)cc12	5.42	11.6	7.25	4.19	> 27	3.96 µM	11.3	8.44	5.65	12.6 µM										
Clc1ccc(NCc2nnc(COc3ccc(OCc4nnc(CNc5ccc(Cl)cc5)o4)c(Cl)c3)o2)cc1	> 100	> 100	27	> 100	> 100	95.6 µM		68.5		> 100 µM										
C/C(=C\CNc1ncnc2nc(Cl)[nH]c12)CO	> 100	> 100	> 100	> 100	> 100	> 100 µM	> 100	> 100	> 100	> 100 µM										
CCOC(=O)C(C)OC(=O)c1ccc(C)cc1 (stereo not given)	> 100		> 100			> 100 µM	> 100													
NCCCCN	> 100	30.2	> 100	> 100		> 100 µM	> 100	> 100	51.5	> 100 µM										
COc1cccc(/C=N/[N-]C(N)=O)c1[O-].[Cu+2].[OH3+].c1cnc2c(c1)ccc1cccnc12	28.7	33.9	48.7	36		75.5 µM	39.3		24.7	42.5 µM					20					
COC(=N)C(C)C	> 100	> 100	> 100	> 100		> 100 µM	> 100		> 100	> 100 µM										
C[C@H](Nc1ccc(C#N)n(C)c1=O)c1cc2cc(Cl)ccc2[nH]c1=O	> 100	> 100	58.5	> 100	> 100	> 100 µM	> 100	> 100	85.6	> 100 µM	24.3	13.7	33.1	27.1	22.4	19.6	25.7	23.4	26.1	19.3
CCOC(=O)C(=CNC(Cc1c[nH]c2ccccc12)C(=O)OC)C(=O)OCC (stereo not given)		> 100	> 100			> 100 µM	> 100			> 100 µM										
O=CC(O)C(O)C(O)COc1cc(CO)cc2c1C(=O)c1ccccc1C2=O (stereo not given)	> 100	> 100	> 100	> 100		> 100 µM	> 100		> 100	> 100 µM										
C=C1CCCC(C)(C)[C@@H]1CC/C(C)=C/Cn1c2cccc(=O)c-2nc2ccccc21		10.7	0.354	9.37		27.4 µM and 3.29 µM	> 100			> 100 µM and 21.6 µM	20.9		3.82					21.2	4.23	6.28
CC(C)(C)OC(=O)N1C(C2=COc3ccccc3O2)=COc2cccnc21	4.38	6.82		3.5	19.1	5.8 µM	5.33	4.7	4.2	4.31 µM										

From PubChem BioAssay (NCI)
